These results are taken from patent US20230060174A1, “PHARMACEUTICAL COMPOSITION OF TRICYCLIC PDE3/PDE4 DUAL INHIBITOR COMPOUND” (CHIA TAI TIANQING PHARMACEUTICAL GROUP CO., LTD., priority 2020, published 2023).

Series [1] is described as follows: Stability study of solid crystalline form (HPLC total impurities). The class given is physicochemical. As for the experimental part:
Experimental Example 1: Stability study of solid crystalline form of the compound of formula (I)
High performance liquid chromatography (HPLC) • The chromatographic conditions of the HPLC method are seen in table below: • Chromatography column: Zorbax SB C-18, 4.6 mm×150 mm, 5 μm (PDS-HPLC-007) • Mobile phase A: 0.1% TFA in water • Mobile phase B: 100% ACN
Preparation of sample: the sample was dissolved with a mixed solvent of acetonitrile and water (acetonitrile: water=50:50 (v/v))
Solid stability stakeout method
The stability of the compound in the following conditions was examined, and samples were taken at different time points to detect the content. About 5 mg of the crystalline form of the compound of formula (I) prepared in Example 2 was accurately weighted in duplicate, transferred to a dry and clean glass bottle, spread into a thin layer as test samples, and placed in experimental conditions of influential factors ((60° C.), (relative humidity 92.5%), illumination (total illumination of 1.2×10^6 Luxhr/near UV energy of 200 whr/m^2), (40° C., relative humidity 75%), or (60° C., relative humidity 75%)). The samples were covered with aluminum foils having holes, and thus completely exposed to the conditions. Sampling analysis was performed at 5 days, 10 days, 1 month, 2 months and 3 months. The samples were completely exposed to illumination (visible light of 1200000 Lux, UV of 200 W) at room temperature.

Series [2] in a line: Hygroscopicity study by dynamic vapor sorption (DVS). The class given is physicochemical. The settings on record: 25° C., RH 0%-90%-0%. As for the experimental part:
Experimental Example 2: Hygroscopicity study of crystalline form of the compound of formula (I)
Instrument model: SMS DVS Advantage
Test conditions: the sample (10-20 mg, the crystalline form prepared in Example 3) was placed in DVS sample tray for testing.
The detailed DVS parameters are as follows:
Balancing: dm/dt=0.01%/min (shortest: 10 min, longest: 180 min)
Drying: drying at 0% RH for 120 min
RH (%) test gradient: 10%
Range of RH (%) test gradient: 0%-90%-0%.

For series [3] the following is noted: reported in literature; cited from earlier work.
The conditions of series [4]: reported in literature; cited from earlier work. The source holds these as a separate data set.
Series [5] deals with PDE4. Conditions: reported in literature; cited from earlier work.

In the case of `CCOc1cc2c(cc1OC)-c1c/c(=N\c3c(C)cc(C)cc3C)n(CCNC(=O)c3c(O)nnn3C)c(=O)n1CC2`, the Total impurities % in series [1] (40° C. + 75% RH - 1 month) is recorded as 0.10%; in series [1] (40° C. + 75% RH - 2 months) it was 0.08%; in series [1] (40° C. + 75% RH - 3 months), 0.09%; in series [1] (40° C. + 75% RH - 10 days) it was 0.10%; in series [1] (60° C. + 75% RH - 1 month), 0.10%; in series [1] (60° C. + 75% RH - 10 days) it was 0.10%. Also, the Total impurities % in series [1] (60° C. - 5 days) was found to be 0.10%; in series [1] (60° C. - 10 days), 0.11%; in series [1] (92.5% RH - 5 days), 0.11%; in series [1] (92.5% RH - 10 days) it was 0.10%; in series [1] (Day 0), 0.11%; in series [1] (Illumination (1.2×10^6 Lux hr, near UV 200 w hr/m^2)), 0.10%. Also, the Total impurities % in series [1] (In the dark) was 0.11%. In addition, in series [1] (high temperature, high humidity or illumination, no increase of impurities), the “Stability in the conditions of high temperature, high humidity or illumination” value is “good stability”. In series [2], the “Hygroscopicity (DVS)” value was “small hygroscopicity”.
For the compound `COc1cc2c(cc1OC)-c1c/c(=N\c3c(C)cc(C)cc3C)n(CCNC(N)=O)c(=O)n1CC2` [RPL554], the Solubility result in series [3] was “poor”. Moreover, the Plasma clearance result in series [4] was “high”. For the same compound, in series [5], the PDE4 inhibitory activity entry is “unsatisfactory”.
